Laboratory results as given in patent US20120276190A1 (priority 2009, published 2012).

Experiments:
Raji cells = type: cell-based
SKOV3 = experiment: WST-1 viability of SKOV3 cells; type: cell-based; settings: with immunotoxin, data not shown
Experimental: The inhibition of protein synthesis in treated cells was assayed by the addition of 3H-leucine (2 μCi/mL) for 4 hours in 96-well plates. Filter mats and samples were used to count cells using a Wallac beta plate reader. Water-soluble tetrazolium-1 (WST-1; Roche) was added to 96-well plates at a final concentration of 10% and absorbance measured at 450 nm to measure cytotoxicity. Te CellTiter-Glo Luminescent Cell Viability Assay kit (Promega) was used to assay ATP. The Caspase-Glo kit from Promega was used to detect Caspase 3/7. Caspase 3 activity was measured using one of two fluorescent substrates Caspase 3 Fluorometric Assay Kit (R&D Systems) or Caspase 3 Fluorometric-KIT (Invitrogen). The results are reported in fluorescent units per microgram of cell protein. For short-exposure cell-killing assays: KB3-1 cells were seeded in six-well plates at a density of 5×10^4/mL. The next day, cells were treated for 4 hours with either immunotoxin alone, ABT-737 alone, or combinations of both as indicated. At the end of the treatment, the cells were washed with PBS, trypsinized, and re-plated and incubated for 6 more days. Finally, the cells were washed with PBS and then stained with methylene blue (0.5%) in methanol/water (50:50 by volume).

KB3-1 cells = type: cell-based; settings: with immunotoxin, data not shown
H69AR cells = type: cell-based
ATF4 in DLD1 cells = experiment: ER stress response (ATF4 immunoblot) in DLD1 cells; type: cell-based; settings: 4 hours, ABT-737 10 μmol/L, DTT 10 mmol/L
Excerpt: (§1) Immunoblot analysis is inadequate to detect the cellular uptake of immunotoxins, added at subnanomolar concentrations. Thus, we could not document directly that additional molecules of toxin were delivered to the cytosol. Instead, we sought other evidence that ABT-737 was directly or indirectly interacting with the ER. In various cell types, Bcl-2 family members are found associated with the ER (Oakes S A, et al., Proc Natl Acad Sci USA 2005; 102:105-10 and Scorrano L, et al., Science 2003; 300:135-9). To test if ABT-737 interacted with the ER and provoked an ER stress response, we incubated KB3-1 or DLD1 cells for 4 hours with either ABT-737 or with DTT; the latter being a well-known mediator of ER stress. Treated cell extracts were analyzed for the transcription factor ATF4 (Bernales S, Papa F R, Walter P. Annu Rev Cell Dev Biol 2006; 22:487-508). […] Overall, our results are consistent with ABT-737 acting on the ER and causing, either directly or indirectly, an increased translocation of PE- or CET-based immunotoxins to the cytosol.

ATF4 in KB3-1 cells = experiment: ER stress response (ATF4 immunoblot) in KB3-1 cells; type: cell-based; settings: 4 hours, ABT-737 10 μmol/L, DTT 10 mmol/L
Excerpt: as §1

[1] = test system: caspase 3/7 in DLD1 cells; type: cell-based
CD22 (human) = CD22 (human) (UniProt P20273); experiment: cell-based or functional assay
UniProt P20273, sequence (P20273 20-847): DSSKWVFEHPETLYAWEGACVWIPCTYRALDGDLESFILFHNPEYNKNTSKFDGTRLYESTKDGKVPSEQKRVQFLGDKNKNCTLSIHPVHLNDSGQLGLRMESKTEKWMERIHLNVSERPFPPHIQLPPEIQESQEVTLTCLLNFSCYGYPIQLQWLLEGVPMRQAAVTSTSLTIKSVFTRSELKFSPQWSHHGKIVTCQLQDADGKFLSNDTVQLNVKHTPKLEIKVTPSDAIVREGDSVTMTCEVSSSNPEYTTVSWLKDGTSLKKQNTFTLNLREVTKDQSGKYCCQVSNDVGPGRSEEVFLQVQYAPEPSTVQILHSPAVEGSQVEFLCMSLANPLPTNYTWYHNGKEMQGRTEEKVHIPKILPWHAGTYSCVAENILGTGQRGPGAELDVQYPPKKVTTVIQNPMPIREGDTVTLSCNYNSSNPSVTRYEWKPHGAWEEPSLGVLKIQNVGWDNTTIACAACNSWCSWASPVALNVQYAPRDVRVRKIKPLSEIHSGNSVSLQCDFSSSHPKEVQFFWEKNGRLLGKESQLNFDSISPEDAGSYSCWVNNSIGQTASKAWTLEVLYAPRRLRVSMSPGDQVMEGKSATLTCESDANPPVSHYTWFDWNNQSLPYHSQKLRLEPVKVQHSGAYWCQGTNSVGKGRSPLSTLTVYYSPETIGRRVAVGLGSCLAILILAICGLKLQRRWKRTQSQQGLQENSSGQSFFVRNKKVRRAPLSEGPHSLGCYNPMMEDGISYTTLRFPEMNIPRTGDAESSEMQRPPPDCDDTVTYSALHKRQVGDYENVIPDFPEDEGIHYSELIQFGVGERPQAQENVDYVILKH

`CC1(C)CCC(c2ccc(Cl)cc2)=C(CN2CCN(c3ccc(C(=O)NS(=O)(=O)c4ccc(N[C@H](CCN5CCOCC5)CSc5ccccc5)c(S(=O)(=O)C(F)(F)F)c4)cc3)CC2)C1` [ABT-263] was tested, and the “apoptosis, ABT-263 alone” value (Raji cells) was “little or no apoptosis”, the “total apoptosis, in combination with BL22” value (Raji cells) was 62% and the “total apoptosis, in combination with HA22” value (Raji cells) was 68%. The “enhancement of SKOV3 killing” value (SKOV3) was “similarly enhanced”, the “enhancement of KB3-1 killing” value (KB3-1 cells) was “similarly enhanced” and the “effect of combination with HB21-PE40” value (H69AR cells) was “synergistic and leads to cell death via apoptosis”. For the same compound, the “sensitivity to killing, agent alone” value (H69AR cells) was “resistant”.
With `O[C@@H](CS)[C@@H](O)CS` [DTT] the “ER stress response (ATF4)” value (ATF4 in DLD1 cells) was “strongly upregulated” and the “ER stress response (ATF4)” value (ATF4 in KB3-1 cells) was “strongly upregulated”.
`CN[C@@H]1C[C@H]2O[C@@](C)([C@@H]1OC)n1c3ccccc3c3c4c(c5c6ccccc6n2c5c31)C(=O)NC4` [staurosporine] was tested, and the “apoptosis, positive control for generating maximal apoptosis” value (Raji cells) was about 74%.
For `CC(C)C[C@H](NC(=O)[C@H](Cc1ccccc1)NC(=O)c1cnccn1)B(O)O` [velcade, bortezomib], the “apoptosis by caspase 3/7 activity” value [1] was “increased caspase 3/7 activity”.
“BL22 (from UniProt P11439 278-389; P11439 406-638)” showed a total apoptosis of Raji cells in 24 hrs (Annexin V / 7-AAD flow cytometry) (CD22 (human)) of 47%.
